Assay results reported in ChEMBL document CHEMBL1629480, “Molecular docking and QSAR study on steroidal compounds as aromatase inhibitors” (Eur J Med Chem, 2010).

Molecular target: T1, Aromatase (Homo sapiens, UniProt P11511)
T1 sequence (P11511 whole entry): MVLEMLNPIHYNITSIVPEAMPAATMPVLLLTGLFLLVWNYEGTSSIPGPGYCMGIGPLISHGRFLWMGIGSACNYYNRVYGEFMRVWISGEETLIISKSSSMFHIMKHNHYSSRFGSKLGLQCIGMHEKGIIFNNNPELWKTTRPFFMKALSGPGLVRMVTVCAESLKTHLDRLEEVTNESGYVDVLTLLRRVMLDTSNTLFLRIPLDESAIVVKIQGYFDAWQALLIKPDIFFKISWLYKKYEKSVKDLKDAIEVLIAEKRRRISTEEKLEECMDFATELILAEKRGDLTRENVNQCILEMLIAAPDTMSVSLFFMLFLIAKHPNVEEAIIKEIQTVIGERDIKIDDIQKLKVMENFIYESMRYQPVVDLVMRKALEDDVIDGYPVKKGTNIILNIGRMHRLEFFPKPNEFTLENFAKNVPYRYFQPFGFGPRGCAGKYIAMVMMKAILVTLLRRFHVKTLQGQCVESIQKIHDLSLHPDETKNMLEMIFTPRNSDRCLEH
Experiment: Inhibition of human placental aromatase
Conditions: for pIC50: human

SMILES | IC50 [nM] | pIC50 [uM]
C[C@]12CC[C@H]3O[C@H]3[C@@H]1CC[C@@H]1[C@@H]2CC[C@]2(C)[C@@H](O)CC[C@@H]12 | 6500 | -0.813
CC(=O)OC1CCC[C@@]2(C)C1=CC[C@@H]1[C@@H]2CC[C@]2(C)C(=O)CC[C@@H]12 (stereo partly drawn) | – | 0
CC(=O)OC1=C2CC[C@@H]3[C@H](CC[C@]4(C)C(=O)CC[C@@H]34)[C@@]2(C)CCC1 | 660 | 0.18
CO[C@H]1CCC[C@@]2(CO)C1=CC[C@@H]1[C@@H]2CC[C@]2(C)C(=O)CC[C@@H]12 | – | -2.176
CC(=O)OC1CCC[C@@]2(CO)C1=CC[C@@H]1[C@@H]2CC[C@]2(C)C(=O)CC[C@@H]12 (stereo partly drawn) | 11000 | -1.041
CCC[C@H]1CCC[C@@]2(C)C1=CC[C@@H]1[C@@H]2CC[C@]2(C)C(=O)CC[C@@H]12 | 5500 | -0.74
C[C@]12CCCC(=O)[C@@H]1CC[C@@H]1[C@@H]2CC[C@]2(C)C(=O)CC[C@@H]12 | 2400 | -0.38
C[C@H]1CCC[C@@]2(C)C1=CC[C@@H]1[C@@H]2CC[C@]2(C)C(=O)CC[C@@H]12 | 1800 | -0.255
C[C@]12CC[C@H]3[C@@H](CCC4=CCCC[C@@]43CO)[C@@H]1CCC2=O | – | 1.31
C[C@]12CCC=C[C@@H]1CC[C@@H]1[C@@H]2CC[C@]2(C)C(=O)CC[C@@H]12 | 225 | 0.648
C[C@]12CCCC(OC(=O)c3ccccc3)=C1CC[C@@H]1[C@@H]2CC[C@]2(C)C(=O)CC[C@@H]12 | 640 | 0.194
C[C@]12CC[C@H]3[C@@H](C[C@H](O)C4=CCCC[C@@]43CO)[C@@H]1CCC2=O | 1000 | -0.146
CC[C@H]1CCC[C@@]2(C)C1=CC[C@@H]1[C@@H]2CC[C@]2(C)C(=O)CC[C@@H]12 | 4500 | -0.653
CCCCCC(=O)OC1=C2CC[C@@H]3[C@H](CC[C@]4(C)C(=O)CC[C@@H]34)[C@@]2(C)CCC1 | 1800 | -0.255
C[C@]12CCC=C[C@@H]1CC[C@@H]1[C@@H]2CC[C@]2(C)[C@@H](O)CC[C@@H]12 | 30000 | -1.477
C[C@]12CC[C@H]3[C@@H](CC=C4CCCC[C@]43C)[C@@H]1CCC2=O | 660 | –
C[C@]12CC[C@H]3O[C@H]3[C@@H]1CC[C@@H]1[C@@H]2CC[C@]2(C)C(=O)CC[C@@H]12 | – | 0.839
C[C@]12CC[C@H]3[C@@H](C[C@@H](O)C4=CCCC[C@@]43CO)[C@@H]1CCC2=O | – | 0.027
CCCC(=O)OC1=C2CC[C@@H]3[C@H](CC[C@]4(C)C(=O)CC[C@@H]34)[C@@]2(C)CCC1 | 1500 | -0.176
C[C@]12CCC(=O)C(O)=C1CC[C@@H]1[C@@H]2CC[C@]2(C)OC(=O)CC[C@@H]12 | 1850 | -0.267
CC(=O)OC1=C2CC[C@@H]3[C@H](CC[C@]4(C)C(=O)CC[C@@H]34)[C@@]2(CO)CCC1 | 3600 | -0.556
C[C@]12CCC(=O)C(O)=C1CC[C@@H]1[C@@H]2CC[C@]2(C)C(=O)CC[C@@H]12 [FORMESTANE] | – | 1.377
C[C@]12CC[C@@H](O)C(=O)[C@@H]1CC[C@@H]1[C@@H]2CC[C@]2(C)C(=O)CC[C@@H]12 | – | 0.174
